{"source": "patent US20150005237A1", "about": "“PEPTIDIC INHIBITOR OF SIGNAL TRANSMISSION FROM G-ALPHA-S TO G-ALPHA-I-COUPLED RECEPTOR CASCADES” (UNIVERSITÄT INNSBRUCK, priority 2011, published 2015)", "assay_type_in_all_cases": "cell-based", "key": {"[1]": {"tested_on": "Erk1/2 phosphorylation in δOR-HEK293 cells", "assay": "MAPK-phosphorylation assay (Erk1/2) in δOR-HEK293 cells", "settings": "for SNC80-induced Erk1/2 phosphorylation (amplitude and duration): pre-treatment before SNC80", "method": "δOR-HEK293 cells were grown in 12 or 24 well plate formats (DMEM supplemented with 10% FBS). Either 24 or 48 hours after splitting or co-transfection in overexpression studies [transfected with constructs encoding the regulatory (RIIβ) or catalytic subunits (PKAc) of PKA] confluent cells were treated with inhibitors (KT5720 for 60 minutes, pertussis toxin for 16 hours), chemical modulators (forskolin, 6-MBC-cAMP, Sp-5,6-DCI-cBIMPS, Sp-8-PIP-cAMPs, 2-Cl-8-MA-cAMP [all for 15 minutes] or Rp-cAMP for 60 minutes) and/or the δOR ligand SNC80 (for either 3, 6, 10 or 15 minutes). cAMP analogs purchased from Biolog (6-MBC-cAMP, #M012; Sp-5,6-DCI-cBIMPS, #D014; Sp-8-PIP-cAMPs, #P005, 2-Cl-8-MA-cAMP, #C080; Rp-cAMP, #A002S) (see Bobrovskaya et al., Cell. Signal. 19, 1141-1149 (2007); Nguyen et al., Cell. Signal. 16, 1141-1151 (2004); Maronde et al., J. Pineal Res. 27, 170-182 (1999); Ogreid et al., Eur. J. Biochem. 181, 19-31 (1989); Poppe et al., Nat. Methods 5, 277-278 (2008)).\nFollowing treatments at 37° C. for 3, 6, 10 or 15 minutes the reactions were stopped by direct addition of Laemmli sample buffer. Equal amounts of protein (lysates normalized to loading control proteins) were subjected to polyacrylamide gel electrophoresis followed by immunoblotting (IB). To analyze the phosphorylation of Erk1/2 we applied the Phospho-p44/42 MAP Kinase antibody (Cell Signaling Technology, #9101). Quantitative densitometry of immuno blot bands was performed using the program ImageQuant 5.2 (Molecular Dynamics)."}, "[2]": {"molecular_target": "T1, RIIβ-RlucF[1]:PKAc-RlucF[2] complex (Rattus norvegicus, UniProt P12369)", "T1 construct": "Renilla luciferase PCA fragment F[1]; expressed in transfected cells", "assay": "Renilla luciferase PCA of PKA holoenzyme dissociation in HEK293T cells", "settings": "HEK293T cells stably expressing the PKA reporter", "method": "We have generated a stable HEK293T cell line coexpressing the PCA fusion proteins RIIβ-Rluc-F[1] and PKAc-RlucF[2], as previously described. All cells were grown in DMEM supplemented with 10% FBS. We treated confluent HEK293T cells (stably expressing the PKA reporter) grown in 24 well plate format with varying concentrations and combinations of cAMP analogs 6-MBC-cAMP and Sp-5,6-DCI-cBIMPS (15 min; Biolog, Germany). We pretreated confluent HEK293T cells (stably expressing the PKA reporter) grown in 24 well plate format with 250 μM of Rp-cAMP (60 minutes) or with 6-MBC-cAMP and Sp-5,6-DCI-cBIMPS (=RII selective, each 50 μM; 15 min). We pretreated confluent HEK293T cells (stably expressing the PKA reporter) grown in 24 well plate format for 30 minutes with TAT or Reggai fusion peptides (˜3 μM) followed by exposure to forskolin (100 μM; 15 min). Following treatment, growth medium was exchanged and cells were resuspended in 350 μl of PBS. 100 μl of cell suspensions were transferred to 96-well plates and subjected to bioluminescence analysis using the LMaxTMII384 luminometer (Molecular Devices). Rluc bioluminescence signals were integrated for 10 seconds following addition of the Rluc substrate benzyl-coelenterazine (5 μM; Nanolight). […]"}, "[3]": {"tested_on": "R:Gαi3 complexes", "assay": "cAMP agarose precipitation of R:Gαi3 complexes from COS7 cells", "settings": "forskolin pre-treatment 15 minutes, 2AHA-cAMP-coupled agarose beads", "method": "HEK293, U2OS cells and total brains of mice were homogenized using a Potter S (B. Braun Biotech International) with 15 strikes (lysis buffer: 10 mM sodium phosphate pH 7.2, 150 mM NaCl, 0.05% Triton X100 supplemented with standard protease inhibitors). We clarified the lysate (13000 rpm, 15 min) and precipitated PKA regulatory subunit associated protein complexes with PKA selective 8-AHA-cAMP agarose and Rp-8-AHA-cAMP agarose resin (Biolog, […]) for two hours at 4° C. As negative control experiment we added excess of cAMP (5 mM) to the brain lysates to mask the cAMP binding sites in the R subunits for precipitation. Resin associated proteins were washed four times with lysis buffer and eluted with Laemmli sample buffer. Equal amounts of protein (lysates normalized to loading control proteins) were subjected to polyacrylamide gel electrophoresis followed by immunoblotting with indicated antibodies. We performed densitometric quantification of RIIβ, PKAc and Gαi3 (in each case normalized on the most abundant precipitated protein from the same immunoblot (n=3) to compare complex formation and fold enrichment between holoenzyme (precipitated with Rp-8-AHA-cAMP) and activated R complexes (precipitated with 8-AHA-cAMP).\nWe then tested whether pre-dissociating endogenous R/Reg and PKAc/Cat subunits would change the stoichiometry of R:Gαi3 or R:PDK1 complexes. […]"}, "[4]": {"tested_on": "trimeric Gαi:βγ complex", "assay": "BRET assay of Gαi1:Gγ2 conformational rearrangement in δOR-HEK293 cells", "text": "δOR-HEK293 cells grown in DMEM supplemented with 10% FBS were transiently transfected with the following constructs: For measurements of the interactions of G protein subunits among each other and with the receptor we transfected Gαi1 with the Renilla luciferase (Rluc) inserted at amino acid position 91 and the UV-shifted GFP variant GFP10 (substitutions: P64L, S147P, and S202P) fused to the C-terminus of […] or the UV-shifted variant GFP2 (substitution: F64L) fused to the C-terminus of the δOR. In overexpression studies, we coexpressed regulatory (RIIβ) or catalytic subunits (PKAc) of PKA. […] Total fluorescence and bioluminescence were evaluated for each well using a FlexStation2 (Molecular Devices) and Mithras LB 940 (Berthold Technologies), respectively. uvGFP fluorescence was excited at 400 nm and read at 515 nm. Fluorescence values were corrected by subtracting the auto-fluorescence of cells not expressing uvGFP. BRET between Rluc and GFP2 or GFP10 was measured after the addition of 5 μM Rluc substrate DeepBlueC (bisdeoxy-coelenterazine, PerkinElmer, Lifescience). BRET signals were derived from the emission detected with the energy acceptor filter (515±15 nm; GFP2/10) divided by the emission detected with the energy donor filter (410±40 nm; Rluc/Rluc3). […]"}, "[5]": {"tested_on": "PKA kinase activity", "assay": "CREB phosphorylation monitoring of PKA kinase activity", "settings": "conditions used for the Erk1/2 experiments", "method": "We also tested the impact of R:Gαi complex formation on the evolutionary conserved route of signal transmission from Gαi to MAPK9. […] Pre-treatment with forskolin potentiated the SNC80-induced Erk1/2 phosphorylation (FIG. 2c). […] To exclude the possibility that PKA kinase activity could account for this potentiation, we pre-treated cells with the PKA inhibitor KT5720 (unless noted otherwise, all subsequent experiments were carried out in the presence of this kinase activity inhibitor). We confirmed that KT5720 inhibits PKA kinase activity under the conditions used by monitoring CREB phosphorylation (activated independently of Gαi signalling)."}, "[6]": {"tested_on": "Gαs- to Gαi-cascades", "assay": "Reggai peptide applied in living HEK293 cells: signal transmission from Gαs- to Gαi-cascades", "settings": "HEK293 cell line", "text": "The present inventors identified and successfully applied the Reggai peptide directly in the living cells, in particular cell culture, HEK293 cell line, and changed the original and conserved Reggai sequence in a model organism (budding yeast) to prevent signal transmission from Gαs- to Gαi-cascades. The Reggai peptide had no effect on sole activation of either cascade, just in the case of simultaneous activation of both types of receptors the Gαs triggered and PKA-mediated elevation of Gαi activities was abolished. In the mammalian system the present inventors used biochemical tools to measure changes of cAMP levels, G protein activities and MAPK activation downstream of Gαi-coupled receptors upon formation of the dynamic interaction between PKA and Gαi."}}, "note": "Where no end group is shown, it is not given here."}
{"molecule": "OC1C2OP(O)(=S)OCC2OC1n1cnc2cc(Cl)c(Cl)cc21", "note": "(stereo not drawn) [Sp-5,6-DCI-cBIMPS]", "values": [{"measurement": "SNC80-induced Erk1/2 phosphorylation (amplitude and duration)", "setting": "[1]", "value": "potentiated"}]}
{"molecule": "Nc1ncnc2c1ncn2[C@@H]1O[C@@H]2COP(O)(=S)O[C@H]2[C@H]1O", "note": "(stereo partly drawn) [Rp-cAMP]", "values": [{"measurement": "PKA holoenzyme dissociation", "setting": "[2]", "value": "prevented"}, {"measurement": "SNC80+RegII subunit activator and SNC80+forskolin mediated Erk1/2 phosphorylation", "setting": "[1]; pre-treatment 250 μM, 60 minutes", "value": "decreased"}]}
{"molecule": "C=C[C@@]1(C)CC(=O)[C@]2(O)[C@@]3(C)[C@@H](O)CCC(C)(C)[C@@H]3[C@H](O)[C@H](OC(C)=O)[C@@]2(C)O1", "note": "[forskolin]", "values": [{"measurement": "fold enrichment of R:Gαi3 complexes", "setting": "[3]", "value": "3.8 (SD±0.99) fold"}, {"measurement": "conformation of the trimeric G-protein complex", "setting": "[4]; treatment alone, without SNC80", "value": "no effect"}]}
{"molecule": "6-MBC-cAMP", "values": [{"measurement": "SNC80-induced Erk1/2 phosphorylation (amplitude and duration)", "setting": "[1]", "value": "potentiated"}]}
{"molecule": "CCCCCCOC(=O)[C@]1(O)C[C@@H]2O[C@@]1(C)n1c3ccccc3c3c4c(c5c6ccccc6n2c5c31)C(=O)NC4", "note": "[KT5720]", "values": [{"measurement": "PKA kinase activity (CREB phosphorylation)", "setting": "[5]", "value": "inhibits"}]}
{"molecule": "Nc1ncnc2c1nc(N1CCCCC1)n2[C@@H]1O[C@@H]2COP(=O)(O)O[C@H]2[C@H]1O", "note": "[8-PIP-cAMP]", "values": [{"measurement": "SNC80-induced Erk1/2 phosphorylation (amplitude and duration)", "setting": "[1]", "value": "no effect"}]}
{"molecule": "CNc1nc2c(N)nc(Cl)nc2n1C1O[C@@H]2COP(=O)([O-])O[C@H]2[C@H]1O.[Na+]", "note": "(stereo partly drawn) [2-Cl-8-MA-cAMP]", "values": [{"measurement": "SNC80-induced Erk1/2 phosphorylation (amplitude and duration)", "setting": "[1]", "value": "no effect"}]}
{"molecule": "C=CCN1C[C@H](C)N([C@H](c2ccc(C(=O)N(CC)CC)cc2)c2cccc(OC)c2)C[C@H]1C", "note": "[SNC80]", "values": [{"measurement": "Erk1/2 phosphorylation", "setting": "[1]; agonist alone", "value": "large but transient increase"}, {"measurement": "BRET between Gαi1 and Gγ2", "setting": "[4]; agonist alone", "value": "decrease"}]}
{"molecule": "QGDSADSFFIVESGE (not fully specified; listed as Homo sapiens) [Reggai peptide, PKA RIIβ-derived 15 amino acid peptide; applied to cells as fusion with GST, TAT and Flag]", "values": [{"measurement": "sole activation of either cascade (Gαs or Gαi)", "setting": "[6]; only one cascade activated", "value": "no effect"}, {"measurement": "Gαs triggered and PKA-mediated elevation of Gαi activities", "setting": "[6]; simultaneous activation of both types of receptors", "value": "abolished"}, {"measurement": "PKA holoenzyme dissociation", "setting": "[2]", "value": "Neither Reggai nor TAT control peptide pre-treatment of HEK293T cells had any effect"}, {"measurement": "potentiation of SNC80-mediated Erk1/2 phosphorylation using RII/RegII subunit activators", "setting": "[1]; fusion peptides ~3 μM, 30 minutes", "value": "prevented"}]}
